Laboratory results as given in US20120107932A1, “PRRS-VIRUS RECEPTOR AND ITS INHIBITOR” (priority 2009, published 2012).

Columns and labels:
NMM-II ATPase = conditions: vertebrate cells; Straight et al. Science 2003; cited from earlier work
MA-104 and PAM cells [1] = assay: Effects of blebbistatin on cells (cytopathic effects, CPE); assay type: cell-based
MA-104 and PAM cells [2] = assay: as above; assay type: cell-based; conditions: Table 4, Marc-145 and PAM cells
Protocol: Marc-145 and PAM cells (10^5 cells/ml) are cultured on DMEM medium (containing 100 U/ml penicillin, 50 μg/ml streptomycin sulphate, 50 μg/ml gentamycin and 10% calf serum) in an incubator under 37[…] and 5% CO2 to form monolayer. Dissolve (±)-blebbistatin, (S)-(−)-blebbistatin and (R)-(+)-blebbistatin (purchased from Tocris Cookson, Inc. [US]) in DMSO, then perform multiple-proportion dilution with PBS, add a monolayer culture plate and continuously culture it to observe cytopathic effects (CPE). Under a conventional microscope, CPE is observed as rough cell surface, strong refractivity, and finally cell shedding. […] Therefore, (+)-blebbistatin can be used as a PRRSV-receptor blocker.

NMM-II = conditions: Straight et al. Science 2003; cited from earlier work
PRRSV = assay: PRRSV-receptor blocking test (CPE caused by PRRSV in Marc-145 and PAM cells); assay type: cell-based; design: key to Inhibition levels of CPE: “−” means no CPE; “+” means CPE in 25% cells; “++” means CPE in 50% cells; “+++” means CPE in above 75% cells; conditions: for Inhibition levels of CPE: PRRSV 10^3TCID50/ml, Marc-145 and PAM cells
Protocol: Marc-145 and PAM cells (10^5 cells/ml) are cultured on DMEM medium (containing 100 U/ml penicillin, 50 μg/ml streptomycin sulphate, 50 μg/ml gentamycin and 10% calf serum) in an incubator under 37 □ and 5% CO2 to form monolayer. Dissolve the NMHC II-A protein, artificially synthesized polypeptides, serum antibodies and (+)-blebbistatin obtained by using the methods of Implementation Examples 1, 2 and 4 in the DMEM medium; after de-germing by filtration, mix with PRRSV strains under different fixation concentrations (10^3TCID50/ml) and incubate an hour, and then add the cells above; perform eight repetitions for each dilution; after adsorption at 37 °C for an hour, remove the mixture, add DMEM medium and culture continuously; and observe CPE daily. The CPE manifestations caused by PRRSV infection include rough cell surface, strong refractivity, and finally cell shedding. The results in Table 5 illustrate the CPE inhibition levels of the NMHC II-A protein, artificially synthesized polypeptides, serum antibodies and (+)-blebbistatin under the each-well concentration of μg, μg, μL and μM in turn. The judgment results of cell CPE are expressed as follows: “−” means no CPE, “+” means CPE in 25% cells, “++” means CPE in 50% cells, and “+++” means CPE in above 75% cells.

MA-104 and PAM cells [3] = assay: Indirect immunofluorescence assay (IFA), serum antibodies binding to cells; assay type: cell-based; conditions: serum of mice after third immunization with the named antigen
Protocol: Indirect immunofluorescence assay (IFA): After dilution, combine the mouse anti-NMHC II-A protein and anti-polypeptide antibodies after immunization three times with MA-104 and PAM monolayer cells for 0.5-2 hours, then bind the goat anti-mouse IgG testing antibody labeled with fluorescence to the cells.

[4] = dilution 1/40, MA-104 and PAM cells
[5] = dilution 1/80, MA-104 and PAM cells
[6] = dilution 1/160, MA-104 and PAM cells
[7] = dilution 1/320, MA-104 and PAM cells

Row | Molecule | blebbistatin causing CPE or not (Yes or No) (MA-104 and PAM cells [1]; 1 μM) | blebbistatin causing CPE or not (Yes or No) (MA-104 and PAM cells [1]; 2 μM) | blebbistatin causing CPE or not (Yes or No) (MA-104 and PAM cells [1]; 5 μM) | blebbistatin causing CPE or not (Yes or No) (MA-104 and PAM cells [1]; 10 μM) | blebbistatin causing CPE or not (Yes or No) (MA-104 and PAM cells [1]; 20 μM) | blebbistatin causing CPE or not (Yes or No) (MA-104 and PAM cells [1]; 50 μM) | blebbistatin causing CPE or not (Yes or No) (MA-104 and PAM cells [1]; 100 μM) | effect on cell proliferation and CPE (MA-104 and PAM cells [2]) | Inhibition levels of CPE (PRRSV; 1 μg per well) | Inhibition levels of CPE (PRRSV; 2 μg per well) | Inhibition levels of CPE (PRRSV; 5 μg per well) | Inhibition levels of CPE (PRRSV; 10 μg per well) | Inhibition levels of CPE (PRRSV; 20 μg per well) | Inhibition levels of CPE (PRRSV; 50 μg per well) | Inhibition levels of CPE (PRRSV; 100 μg per well) | inhibition of the cell CPE caused by PRRSV (PRRSV; at 2 μg-100 μg/well) | Cell-bound serum (with or without fluorescence) (MA-104 and PAM cells [3]; [4]) | Cell-bound serum (with or without fluorescence) (MA-104 and PAM cells [3]; [5]) | Cell-bound serum (with or without fluorescence) (MA-104 and PAM cells [3]; [6]) | Cell-bound serum (with or without fluorescence) (MA-104 and PAM cells [3]; [7]) | further results
1 | Cc1ccc2c(c1)C(=O)C1(O)CCN(c3ccccc3)C1=N2 (racemic) [(±)-blebbistatin] | Yes | Yes | Yes | Yes | Yes | Yes | Yes | can inhibit cell proliferation and cause CPE |  |  |  |  |  |  |  |  |  |  |  |  | inhibition of NMM-II ATPase activity (NMM-II ATPase): selective inhibitor
2 | Cc1ccc2c(c1)C(=O)[C@@]1(O)CCN(c3ccccc3)C1=N2 [(+)-blebbistatin, (R)-(+)-blebbistatin, reference compound] | No | No | No | No | No | No | No | does not inhibit cell proliferation and does not cause CPE |  |  |  |  |  |  |  |  |  |  |  |  | inhibition of NMM-II-dependent cellular division and proliferation (NMM-II): does not inhibit; Inhibition levels of CPE (PRRSV; 1 μM per well): + (“+” means CPE in 25% cells); Inhibition levels of CPE (PRRSV; 2 μM per well): −; Inhibition levels of CPE (PRRSV; 5 μM per well): −; Inhibition levels of CPE (PRRSV; 10 μM per well): −; Inhibition levels of CPE (PRRSV; 20 μM per well): −; Inhibition levels of CPE (PRRSV; 50 μM per well): −; Inhibition levels of CPE (PRRSV; 100 μM per well): −; inhibition of the cell CPE caused by PRRSV (PRRSV; at 2 μM-100 μM/well): fully inhibit; blocking of PRRSV strains from infecting cells (PRRSV; classic American strains (VR-2332), Chinese isolates (Ch-1a), highly pathogenic strains (JXA-1)): block the classic American strains, Chinese isolates and highly pathogenic strains of PRRSV from infecting cells
3 | Cc1ccc2c(c1)C(=O)[C@]1(O)CCN(c3ccccc3)C1=N2 [(S)-(−)-blebbistatin] | Yes | Yes | Yes | Yes | Yes | Yes | Yes | can inhibit cell proliferation and cause CPE |  |  |  |  |  |  |  |  |  |  |  |  | 
4 | Polypeptide (Seq ID No: 2): NMHC II-A artificial polypeptide, amino-acid sequence Seq ID No: 2 (GAGDGSDEE) |  |  |  |  |  |  |  |  | ++ (“++” means CPE in 50% cells) | − | − | − | − | − | − | fully inhibit | Yes | Yes | Yes | Yes | 
5 | Polypeptide (Seq ID No: 3): NMHC II-A artificial polypeptide, amino-acid sequence Seq ID No: 3 (GAGDGSDEEVDGKA) |  |  |  |  |  |  |  |  | ++ (“++” means CPE in 50% cells) | − | − | − | − | − | − | fully inhibit | Yes | Yes | Yes | Yes | 
6 | Polypeptide (Seq ID No: 4): NMHC II-A artificial polypeptide, amino-acid sequence Seq ID No: 4 (KADGAEAKPAE) |  |  |  |  |  |  |  |  | ++ (“++” means CPE in 50% cells) | − | − | − | − | − | − | fully inhibit | Yes | Yes | Yes | Yes | 
